Test results: patent US6821980B1, “Substituted 5-benzyl-2,4-diaminopyrimidines” (Basilea Pharmaceutica AG, priority 1999, dated 2004)
In brackets after ≈: the same amount, converted by molar mass. Where two headings read alike, the source gives them in different places.

Assays:
[1] = test system: Streptococcus pneumoniae 1/1; experiment: MIC against Streptococcus pneumoniae 1/1; assay type: cell-based; conditions: Streptococcus pneumoniae 1/1, trimethoprim- and penicillin-resistant, serotype 6, clinical isolate; for MIC: read-out: MIC Sp1/1
[2] = test system: Staphylococcus aureus 101; experiment: MIC against Staphylococcus aureus 101; assay type: cell-based; conditions: Staphylococcus aureus 101, MRSA- and trimethoprim-resistant, clinical isolate; for MIC: read-out: MIC Sa101
[3] = molecular target: T1, purified DHFR of strain Sp1/1 of Streptococcus pneumoniae (Streptococcus pneumoniae serotype 4, UniProt Q54801); assay type: biochemical; conditions: IC50 against purified DHFR of strain Sp1/1
T1 sequence (Q54801 1-168 I100L): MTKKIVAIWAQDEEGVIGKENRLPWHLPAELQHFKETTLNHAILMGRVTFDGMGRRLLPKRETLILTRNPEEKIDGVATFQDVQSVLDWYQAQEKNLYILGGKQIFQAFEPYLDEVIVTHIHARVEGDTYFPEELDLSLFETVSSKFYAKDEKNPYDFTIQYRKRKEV

[4] = molecular target: purified DHFR of strain 157/4696 of Staphylococcus aureus (Staphylococcus aureus, UniProt P13955); experiment: biochemical
purified DHFR of strain 157/4696 of Staphylococcus aureus, sequence (P13955 whole entry): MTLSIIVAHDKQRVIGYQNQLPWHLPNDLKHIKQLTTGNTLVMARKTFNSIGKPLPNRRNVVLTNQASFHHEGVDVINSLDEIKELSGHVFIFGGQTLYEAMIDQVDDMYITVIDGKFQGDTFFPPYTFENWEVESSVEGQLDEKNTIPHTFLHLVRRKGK

[5] = Table 2, IC50 against purified DHFR of strain 157/4696 (highly trimethoprim-resistant; clinical isolate), read-out: DHFR Sa1

| Structure (SMILES) | MIC ([1]; Table 2) | MIC ([2]; Table 2) | IC50 ([3]; Table 2) | IC50 [4] | MIC Sp1/1 ([1]; Table 2) | MIC Sa101 ([2]; Table 2) | IC50 [4, 5] | MIC ([1]; Table 1) | MIC ([2]; Table 1) | IC50 ([3]; Table 1) |
| --- | --- | --- | --- | --- | --- | --- | --- | --- | --- | --- |
| CCOc1cc(Cc2cnc(N)nc2N)cc(OS(=O)(=O)C(C)C)c1-c1ccc(OC)c(N)c1 [Example 33-a, Propane-2-sulphonic acid 3′-amino-4-(2,4-diamino-pyrimidin-5-ylmethyl)-6-ethoxy-4′-methoxy-4-ylmethyl-biphenyl-2-yl ester] | 1 µg/mL (≈ 2.05 µM) | 1 µg/mL (≈ 2.05 µM) | 12 nM | 65 nM |  |  |  |  |  |  |
| CCOc1cc(Cc2cnc(N)nc2N)cc(OS(=O)(=O)C(C)C)c1-c1ccc(N)c(F)c1 [Example 33-b, Propane-2-sulphonic acid 4′-amino-4-(2,4-diamino-pyrimidin-5-ylmethyl)-6-ethoxy-3′-fluoro-4-ylmethyl-biphenyl-2-yl ester] | 1 µg/mL (≈ 2.1 µM) | 2 µg/mL (≈ 4.21 µM) | 14 nM | 260 nM |  |  |  |  |  |  |
| CCOc1cc(Cc2cnc(N)nc2N)cc(OS(=O)(=O)C(C)C)c1-c1cc(N)cc(F)c1 [Example 33-c, Propane-2-sulphonic acid 3′-amino-4-(2,4-diamino-pyrimidin-5-ylmethyl)-6-ethoxy-5′-fluoro-4-ylmethyl-biphenyl-2-yl ester] |  |  | 14 nM |  | 2 µg/mL (≈ 4.21 µM) | 2 µg/mL (≈ 4.21 µM) | 100 nM |  |  |  |
| CCOc1cc(Cc2cnc(N)nc2N)cc(OS(=O)(=O)C(C)C)c1-c1ccc(CN2CCOCC2)c(N)c1 [Example 33-d, Propane-2-sulphonic acid 3′-amino-4-(2,4-diamino-pyrimidin-5-ylmethyl)-6-ethoxy-4′-morpholinemethyl-4-ylmethyl-biphenyl-2-yl ester] |  |  | 9.1 nM |  | 2 µg/mL (≈ 3.59 µM) | 2 µg/mL (≈ 3.59 µM) | 39 nM |  |  |  |
| CCOc1cc(Cc2cnc(N)nc2N)cc(OS(=O)(=O)C(C)C)c1-c1ccc(CN(C)C)c(N)c1 [Example 33-f, Propane-2-sulphonic acid 3′-amino-4-(2,4-diamino-pyrimidin-5-ylmethyl)-6-ethoxy-4′-dimethylaminomethyl-biphenyl-2-yl ester] | 8 µg/mL (≈ 15.5 µM) | 2 µg/mL (≈ 3.89 µM) | 89 nM | 42 nM |  |  |  |  |  |  |
| CCOc1cc(Cc2cnc(N)nc2N)cc(OS(=O)(=O)C(C)C)c1-c1ccc(C)nc1 [Example 33-g, Propane-2-sulphonic acid 5-(2,4-diamino-pyrimidin-5-ylmethyl)-3-ethoxy-2-(6-methyl-pyridin-3-yl)-phenyl ester] | 8 µg/mL (≈ 17.5 µM) | 4 µg/mL (≈ 8.74 µM) | 76 nM | 980 nM |  |  |  |  |  |  |
| CCOc1cc(Cc2cnc(N)nc2N)cc(OS(=O)(=O)C(C)C)c1-c1ccc(N)c(C)c1 [Example 33e, Propane-2-sulphonic acid 4′-amino-4-(2,4-diamino-pyrimidin-5-ylmethyl)-6-ethoxy-3′-methyl-biphenyl-2-yl ester] |  |  |  | 200 nM |  |  |  | 1 µg/mL (≈ 2.12 µM) | 1 µg/mL (≈ 2.12 µM) | 19 nM |
| CCOc1cc(Cc2cnc(N)nc2N)cc(OS(=O)(=O)C2CC2)c1-c1cccc(N)c1 [Example 34-a, Cyclopropanesulphonic acid 3′-amino-4-(2,4-diamino-pyrimidin-5-ylmethyl)-6-ethoxy-bilphenyl-2-yl ester] | 1 µg/mL (≈ 2.2 µM) | 2 µg/mL (≈ 4.39 µM) | 9.2 nM | 270 nM |  |  |  |  |  |  |
| CCOc1cc(Cc2cnc(N)nc2N)cc(OS(=O)(=O)C2CC2)c1-c1ccc(NC)cc1 [Example 34-b, Cyclopropanesulphonic acid 4-(2,4-diamino-Ryrimidin-5-ylmethyl)-6-ethoxy-4′-methylamino-biphenyl-2-yl ester] | 1 µg/mL (≈ 2.13 µM) | 2 µg/mL (≈ 4.26 µM) | 11 nM | 210 nM |  |  |  |  |  |  |
| CCOc1cc(Cc2cnc(N)nc2N)cc(OS(=O)(=O)C2CC2)c1-c1cc(N)cc(F)c1 [Example 34-c, Cyclopropanesulphonic acid 3′-amino-4-(2,4-diamino-pyrimidin-5-ylmethyl)-6-ethoxy-5′-fluoro-biphenyl-2-yl ester] | 2 µg/mL (≈ 4.22 µM) | 4 µg/mL (≈ 8.45 µM) | 3.4 nM | 190 nM |  |  |  |  |  |  |
| CCOc1cc(Cc2cnc(N)nc2N)cc(OS(=O)(=O)C2CC2)c1-c1ccc(N)c(C)c1 [Example 34-d, Cyclopropanesulphonic acid 4′-amino-4-(2,4-diamino-pyrimidin-5-ylmethyl)-6-ethoxy-3′-methyl-biphenyl-2-yl ester] | 1 µg/mL (≈ 2.13 µM) | 2 µg/mL (≈ 4.26 µM) | 2.4 nM | 140 nM |  |  |  |  |  |  |
| CCOc1cc(Cc2cnc(N)nc2N)cc(OS(=O)(=O)C2CC2)c1-c1ccc(CN2CCOCC2)c(N)c1 [Example 34-e, Cyclopropanesulphonic acid 3′-amino-4-(2,4-diamino-pyrimidin-5-ylmethyl)-6-ethoxy-4′-morpholin-4-ylmethyl-biphenyl-2-yl ester] | 4 µg/mL (≈ 7.21 µM) | 4 µg/mL (≈ 7.21 µM) | 15 nM | 140 nM |  |  |  |  |  |  |
| CCOc1cc(Cc2cnc(N)nc2N)cc(OS(=O)(=O)C2CC2)c1-c1ccc(C)c(N)c1 [Example 34-f, Cyclopropanesulphonic acid 3′-amino-4-(2,4-diamino-pyrimidin-5-ylmethyl)-6-ethoxy-4′-methyl-biphenyl-2-yl ester] | 1 µg/mL (≈ 2.13 µM) | 2 µg/mL (≈ 4.26 µM) | 9.5 nM | 97 nM |  |  |  |  |  |  |
| CCOc1cc(Cc2cnc(N)nc2N)cc(OS(=O)(=O)C(C)CC)c1-c1ccc(N)c(F)c1 (centres unmarked) [Example 35-b, Butane-2-sulphonic acid 4′-amino-4-(2,4-diamino-pyrimidin-5-ylmethyl)-6-ethoxy-3′-fluoro-biphenyl-2-yl ester] | 0.5 µg/mL (≈ 1.02 µM) | 2 µg/mL (≈ 4.09 µM) | 9 nM | 130 nM |  |  |  |  |  |  |
| CCOc1cc(Cc2cnc(N)nc2N)cc(OS(=O)(=O)C(C)CC)c1-c1ccc(CN2CCOCC2)c(N)c1 (centres unmarked) [Example 35-c, Butane-2-sulphonic acid 3′-amino-4-(2,4-diamino-pyrimidin-5-ylmethyl)-6-ethoxy-4′-morpholin-4-ylmethyl-biphenyl-2-yl ester] | 1 µg/mL (≈ 1.75 µM) | 2 µg/mL (≈ 3.5 µM) | 4.6 nM | 43 nM |  |  |  |  |  |  |
| CCOc1cc(Cc2cnc(N)nc2N)cc(OS(=O)(=O)C(C)CC)c1-c1ccc(OC)c(N)c1 (centres unmarked) [Example 35-d, Butane-2-sulphonic acid 3′-amino-4-(2,4-diamino-gyrimidin-5-ylmethyl)-6-ethoxy-4′-methoxy-biphenyl-2-yl ester] | 1 µg/mL (≈ 1.99 µM) | 2 µg/mL (≈ 3.99 µM) | 4.3 nM | 95 nM |  |  |  |  |  |  |
| CCOc1cc(Cc2cnc(N)nc2N)cc(OS(=O)(=O)C(C)CC)c1-c1ccc(NCCO)cc1 (centres unmarked) [Example 35-f, Butane-2-sulphonic acid 4-(2,4-diamino-pyrimidin-5-ylmethyl)-6-ethoxy-4′-(2-hydroxy-ethylamino)-biphenyl-2-yl ester] | 0.5 µg/mL (≈ 0.97 µM) | 4 µg/mL (≈ 7.76 µM) | 8.5 nM | 120 nM |  |  |  |  |  |  |
| CCOc1cc(Cc2cnc(N)nc2N)cc(OS(=O)(=O)C(C)CC)c1-c1ccc(N)cc1 (centres unmarked) [Example 35a, Butane-2-sulphonic acid 4′-amino-4-(2,4-diamino-pyrimidin-5-ylmethyl)-6ethoxy-biphenyl-2-yl ester] |  |  |  | 110 nM |  |  |  | 0.5 µg/mL (≈ 1.06 µM) | 2 µg/mL (≈ 4.24 µM) | 3.7 nM |
| CCOc1cc(Cc2cnc(N)nc2N)cc(OS(=O)(=O)C(C)CC)c1-c1ccc(N)c(C)c1 (centres unmarked) [Example 35e, Butane-2-sulphonic acid 4′-amino-4-(2,4-diamino-pyrimidin-5-ylmethyl)-6-ethoxy-3′-methyl-biphenyl-2-yl ester] |  |  |  | 62 nM |  |  |  | 0.5 µg/mL (≈ 1.03 µM) | 1 µg/mL (≈ 2.06 µM) | 4.6 nM |
| CCOc1cc(Cc2cnc(N)nc2N)cc(OS(=O)(=O)CC(C)C)c1-c1ccc(N)c(C)c1 [Example 36-a, 2-Methyl-propane-1-sulphonic acid 4′-amino-4-(2,4-diamino-pyrimidin-5-ylmethyl)-6-ethoxy-3′-methyl-biphenyl-2-yl ester] | 0.25 µg/mL (≈ 0.515 µM) | 2 µg/mL (≈ 4.12 µM) | 3.3 nM | 32 nM |  |  |  |  |  |  |
| CCOc1cc(Cc2cnc(N)nc2N)cc(OS(=O)(=O)CC(C)C)c1-c1ccc(N)c(F)c1 [Example 36-b, 2-Methyl-propane-1-sulphonic acid 4′-amino-4-(2,4-diamino-pyrimidin-5-ylmethyl)-6-ethoxy-3′-fluoro-biphenyl-2-yl ester] | 0.5 µg/mL (≈ 1.02 µM) | 8 µg/mL (≈ 16.3 µM) | 5.8 nM | 230 nM |  |  |  |  |  |  |
| CCOc1cc(Cc2cnc(N)nc2N)cc(OS(=O)(=O)CC(C)C)c1-c1ccc(N)cc1 [Example 36-c, 2-Methyl-propane-1-sulphonic acid 4′-amino-4-(2,4-diamino-pyrimidin-5-ylmethyl)-6-ethoxy-biphenyl-2-yl ester] | 0.5 µg/mL (≈ 1.06 µM) | 2 µg/mL (≈ 4.24 µM) | 4.8 nM | 240 nM |  |  |  |  |  |  |
| CCOc1cc(Cc2cnc(N)nc2N)cc(OS(=O)(=O)CC(C)C)c1-c1ccc(OC)c(N)c1 [Example 36-d, 2-Methyl-prooane-1-sulphonic acid 3′-amino-4-(2,4-diamino-pyrimidin-5-ylmethyl)-6-ethoxy-4′-methoxy-biphenyl-2-yl ester] | 0.5 µg/mL (≈ 0.997 µM) | 2 µg/mL (≈ 3.99 µM) | 0.68 nM | 66 nM |  |  |  |  |  |  |
